In patent publication EP1203770A1 (priority 1992, dated 1994):
Like-named read-outs stand apart in the source and are kept apart here.

Biological target: T1, HIV-1 protease (Human immunodeficiency virus type 1 group M subtype B, UniProt P04585)
T1 construct: The protease (or proteinase), consisting of only 99 amino acids, is among the smallest enzymes known
Experiment: In vitro HIV protease inhibitory assay (HIV Protease FITC Assay)
Assay type: biochemical
Conditions: for inhibition at 0.123 µM / inhibition at 0.37 µM / inhibition at 1.1 µM / inhibition at 3.3 µM / inhibition at 10 µM / inhibition at 30 µM / inhibition at 1 µM / inhibition at 100 µM / inhibition at 0.41 µM / inhibition at 1.23 µM / inhibition at 3.7 µM / inhibition at 11 µM / inhibition at 33 µM: read-out: HIV-1 Protease % Inhib; for inhibition at 1 µM: HIV-1 Dose 1.000 uM; for inhibition at 100 µM: HIV-1 Dose 100.000 uM; for inhibition at 0.41 µM: HIV-1 Dose 0.410 uM; for inhibition at 1.23 µM: HIV-1 Dose 1.230 uM; for inhibition at 3.7 µM: HIV-1 Dose 3.700 uM; for inhibition at 11 µM: HIV-1 Dose 11.000 uM; for inhibition at 33 µM: HIV-1 Dose 33.000 uM
In short: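 Percent inhibition was read as fluorescence after avidin-bead capture and filtration separated FITC cleavage product from biotinylated substrate. Enzyme and substrate reacted 1 h, RT, dark, at pH 5.5 (0.1 M sodium acetate, 1.0 M NaCl, 0.05% NP-40).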

SMILES	inhibition at 0.123 µM (HIV-1 Dose 0.123 uM) [%]	inhibition at 0.37 µM (HIV-1 Dose 0.370 uM) [%]	inhibition at 1.1 µM (HIV-1 Dose 1.100 uM) [%]	inhibition at 3.3 µM (HIV-1 Dose 3.300 uM) [%]	inhibition at 10 µM (HIV-1 Dose 10.000 uM) [%]	inhibition at 30 µM (HIV-1 Dose 30.000 uM) [%]	inhibition at 100 µM [%]	Ki (read-out: HIV-1 FITC Ki) [nM]	also measured
C=CC(C1=C(O)CC(Cc2ccccc2)(c2ccccc2)OC1=O)c1ccccc1 (centres unmarked) [Example 168, 5,6-Dihydro-4-hydroxy-6-phenyl-6-(phenylmethyl)-3-(1-phenyl-2-propenyl)-2H-pyran-2-one]	< 10	< 10	< 10	10.4	43.4	48			
CCC(C1=C(O)CC(Cc2ccccc2)(Cc2ccccc2)OC1=O)c1ccccc1 (centres unmarked) [Example 120, 6,6-Dibenzyl-4-hydroxy-3-(1-phenyl-propyl)-5,6-dihydro-pyran-2-one]	< 10	< 10	10.1	26.2	46.4	60.1			
O=c1oc(CCc2ccccc2)cc(O)c1C(c1ccccc1)C1CC1 (stereo not drawn) [Example 24, 3-(α-cyclopropylbenzyl)-4-hydroxy-6-phenethyl-2H-Pyran-2-one]					61.3		105		IC50: 6.3 µM; inhibition at 1 µM: < 10%
CCC(c1ccccc1)c1c(O)c(Br)c(CCC2CC2)oc1=O (centres unmarked) [Example 100, 5-Bromo-6-(2-cyclopropyl-ethyl)-4-hydroxy-3-(1-phenyl-propyl)-pyran-2-one]					94.6		104	480	inhibition at 1 µM: 38.3%
O=c1oc(CCc2ccc(Br)cc2)cc(O)c1C(c1ccccc1)C1CC1 (stereo not drawn) [Example 167, 3-(α-cyclopropylbenzyl)-4-hydroxy-6-(p-bromophenethyl)-2H-pyran-2-one]	< 10	< 10	18.4	37.1	60.4	81.1			
CCCS(=O)(=O)Nc1cccc(C(c2c(O)cc(C(CC)Cc3ccccc3)oc2=O)C2CC2)c1 (stereo not drawn) [Example 179, 3-(α-Cyclopropyl-meta-(propylsulfonylamino)benzyl)-6-(α-etylphenethyl)-4-hydroxy-2H-pyran-2-one]	23.7	61.9	77.9	94.4	95.1	102		40	
CCCC(CCC)c1cc(O)c(C(c2ccccc2)C2CC2)c(=O)o1 (stereo not drawn) [Example 25, 3-(α-cyclopropylbenzyl)-6-(1-propylbutyl)-4-hydroxy-2H-Pyran-2-one]								41	
CCC(Cc1ccccc1)c1cc(O)c(C(c2cccc(NS(=O)(=O)c3ccc(C)cc3)c2)C2CC2)c(=O)o1 (centres unmarked) [Example 246]	24.7	60.1	79.9	92.3	92.7	93.3		21.6	
CCC(Cc1ccccc1)c1cc(O)c(C(c2cccc(NC(=O)Cc3ccncc3)c2)C2CC2)c(=O)o1 (stereo not drawn) [Example 249, 3-(α-Cyclopropyl-meta-(4-pyridylacetylamino)benzyl)-6-(α-ethylphenethyl)-4-hydroxy-2H-pyran-2-one]									Ki: 44.4 nM; inhibition at 0.123 µM: < 10%; inhibition at 0.37 µM: 40%; inhibition at 1.1 µM: 70.3%; inhibition at 3.3 µM: 88.5%; inhibition at 10 µM: 103%; inhibition at 30 µM: 107%
CCC(c1ccccc1)c1c(O)cc(CC(=O)Nc2ccccc2)oc1=O (stereo not drawn) [Example 11, 3-(α-ethylbenzyl)-4-hydroxy-6-[[(phenylamino)carbonyl]methyl]-2H-Pyran-2-one]					35.6		79.8		inhibition at 1 µM: 10.8%
CCCc1oc(=O)c(C(CC)c2ccccc2)c(O)c1Br (centres unmarked) [Example 109, 5-Bromo-4-hydroxy-3-(1-phenyl-propyl)-6-propyl-pyran-2-one]							108	203	inhibition at 0.41 µM: 22.2%; inhibition at 1.23 µM: 51.8%; inhibition at 3.7 µM: 78.9%; inhibition at 11 µM: 106%; inhibition at 33 µM: 105%
CCC(Cc1c(C)noc1C)c1cc(O)c(C(c2ccccc2)C2CC2)c(=O)o1 (centres unmarked) [Example 54, 3-(Cyclopropyl-phenyl-methyl)-6(1-(3,5-dimethyl-isoxazol-4-ylmethyl)-propyl)-4-hydroxy-pyran-2-one]							100	72	inhibition at 0.41 µM: 85%; inhibition at 1.23 µM: 95.8%; inhibition at 3.7 µM: 109%; inhibition at 11 µM: 113%; inhibition at 33 µM: 117%
